Here are results for three molecules from patent US20240361317A1, “PROBES BASED ON VOLATILE ORGANIC COMPOUNDS AND USES THEREOF FOR THE DIAGNOSIS AND PROGNOSIS OF PATHOLOGICAL CONDITIONS” (Centre National de la Recherche Scientifique, priority 2021, published 2024).

The target in data set [1] is T1, β-glucuronidase of E. coli (Escherichia coli, UniProt P05804).
T1 construct: purchased Sigma Aldrich
The experiment in a line: Limit of detection of model β-glucuronidase in plasma matrix with the VOC probe (SPME, GC-TQMS of ethanol-D5). The data set is classed as biochemical. How it is done:
(§1) The plasma (approximately […]) is extracted and stored at −20° C. until analysis. An aliquot of 25 μL of plasma is sampled and inserted into a […] with an insert. This biological sample is added to 50 μL of acetate buffer solution (pH 5), protease inhibitor (1×) and 25 μL probe D5-ethyl-β-D-glucuronide at […]. After hermetic closure and agitation to the vortex of the vial, an SPME (SPME in semi-polar phase of the Car/PDMS, 1 cm long and 75 μm thick type with a 24 ga needle; Supelco) of the gas phase above the sample of a duration of 30 mi is carried out after 2 h, 4 h and 7 h of reaction. Each kinetic point requires a vial reaction, and is carried out in duplicate. The VOCs trapped on the SPME fiber are then analyzed by G-TQMS. GC-TMS detection of the ethanol isotopes (thus including ethanol-D5) is carried out with gas chromatography coupled to a triple quadrupole equipped with an E1 source (TSQ 9000, Thermo Fisher Scientific). The system is controlled by the software TSQ 9000 and the results are analyzed with the Xcalibur software (Thermo Fisher Scientific).
The limit of detection (LOD) of a model enzyme (β-glucuronidase of E. coli; liquid solution 50% glycerol, 140 U·mL^−1; Sigma Aldrich) in plasma matrix in the presence of probe D5-ethyl-β-D-glucuronide was then determined. For this, a plasma sample for which the activity of endogenous β-glucuronidase was not detectable, was added to enzyme concentrations ranging from […] to 1.10^−13 mol·L ^−1. The amount of ethanol-D5 released was monitored before adding probe and then after 2.5, 4.5 and 7.5 h of reaction at 30° C.

For data set [2], the system named is β-glucuronidase present in the extracellular matrix. The experiment in a line: Ethanol-D5 in headspace of mouse tumor (MDA-MB-231, KB) and healthy liver biopsies after adding probe. The following applies: probe 10^−9, 10^−8 and 10^−6 M. How it is done:
Thus, tests during which the tumoral and healthy biopsies were placed in the presence of decreasing concentrations of D5-ethyl-β-D-glucuronide were carried out. The probe concentration retained corresponded to the concentration for which no response of healthy tissues was obtained, whereas an enzymatic response was observed on cancer tissues.
In the context of this work, two tumor biopsies, taken on mouse models, were studied (MDA-MB-231: human breast cancer cells, KB: human nasopharynx cancer cells). Two mouse liver biopsies were used as healthy tissues. Probe solutions at 10^−7, 10^−6, 10^−4 and 10^−2 M were prepared in a PBS buffer (137 mM NaCl, 2.7 mM KCl, 10 mM Na2HPO4, 1.8 mM KH2PO4, pH 7.4).
The biopsies were rinsed with 500 μL of PBS and then placed in a vial with an insert of 2 mL. A volume of 297 μL of PBS was added to the vial. The volatile molecules present in the headspace of the vial were trapped for 30 min in order to ensure that no ethanol-D5 was detected. Then 3 μL of probe at […] were added (final probe concentration in the vial of […]). After hermetic closure and vortex agitation, the volatile compounds were preconcentrated on SPME fiber (Car/PDMS, Supelco) for 30 min and then analyzed by GC-TQMS (analysis conditions described in Table 2).

The nature of data set [3]: Spontaneous hydrolysis of probes in buffer solution / during the reaction. The data set is classed as physicochemical. Conditions: acetate buffer, maximum concentration. The procedure:
According to the plasma protocol described above, the probes were used to detect the six enzymatic activities in these samples. To summarize, an aliquot of 25 μL of plasma will be sampled and inserted into a 2 mL vial with an insert. This biological sample was added from 61.4 μL buffer solution (pH 5), 3.6 μL of protease inhibitor (1×) and 10 μL of one or the other of the cocktails. After hermetic closure and agitation to the vortex of the vial, an SPME (SPME in semi-polar phase of the Car/PDMS, 1 cm long and 75 μm thick type with a 24 ga needle, Supelco) of the gas phase above the sample of a duration of 30 min will be carried out after 2 h, 4 h and 7 h of reaction. Each kinetic point requires a vial reaction, and was carried out in duplicate. The VOCs trapped on the SPME fiber are then analyzed by GC-TQMS according to the parameters defined in Tables 4 and 5. Blank cocktails (cocktails in acetate buffer with no plasma) and plasma blanks (plasmas with an acetate buffer without cocktail) were carried out every day of analysis.
The responses of the probes in the plasma samples were compared to their responses in so-called “blank” samples and corresponding to the probes added to the acetate buffer alone.

A further data set has as its system N-acetyl glucosaminidase. The experiment in a line: Specificity study: hydrolysis of probes by the enzyme. The class given is biochemical. How it is done:
(§2) The detection performances of this compound in the presence of ethanol and ethanol-D5 were then verified. […] The detection ranges of ethanol-D5 and ethanol-^13C-D5 were then carried out under SPME sampling conditions developed for biological samples (30 min of sampling at 30° C.). The two isotopes were present in mixtures in solution. The limits of detection obtained are respectively […]. The SPME-GC-TQMS method therefore allows a sharp differentiation of the two isotopes according to their mass fragmentation. An experimental study was then carried out in order to evaluate the affinity of the D5-ethyl-β-D-glucuronide and ^13C-D5-ethyl-N-acetylglucosamine for their respective enzyme (β-glucuronidase and N-acetyl glucosaminidase). For this, the efficacy of hydrolysis of each of these enzymes was studied in the presence of their respective probe (FIG. 6) then in the presence of the substrate probe of its partner (FIG. 7). […] In the presence of the two substrates, each enzyme gives a signal only for the probe specific to it (FIG. 8).

Data set [4] concerns the target β-glucuronidase (Escherichia coli, UniProt P05804). The description is as above. The class given is biochemical. The procedure:
as §2

The target of data set [5] is T2, β-glucuronidase (Homo sapiens, UniProt P08236).
T2 construct: from tissue; host or cells: human blood plasma
T2 sequence (P08236 23-651): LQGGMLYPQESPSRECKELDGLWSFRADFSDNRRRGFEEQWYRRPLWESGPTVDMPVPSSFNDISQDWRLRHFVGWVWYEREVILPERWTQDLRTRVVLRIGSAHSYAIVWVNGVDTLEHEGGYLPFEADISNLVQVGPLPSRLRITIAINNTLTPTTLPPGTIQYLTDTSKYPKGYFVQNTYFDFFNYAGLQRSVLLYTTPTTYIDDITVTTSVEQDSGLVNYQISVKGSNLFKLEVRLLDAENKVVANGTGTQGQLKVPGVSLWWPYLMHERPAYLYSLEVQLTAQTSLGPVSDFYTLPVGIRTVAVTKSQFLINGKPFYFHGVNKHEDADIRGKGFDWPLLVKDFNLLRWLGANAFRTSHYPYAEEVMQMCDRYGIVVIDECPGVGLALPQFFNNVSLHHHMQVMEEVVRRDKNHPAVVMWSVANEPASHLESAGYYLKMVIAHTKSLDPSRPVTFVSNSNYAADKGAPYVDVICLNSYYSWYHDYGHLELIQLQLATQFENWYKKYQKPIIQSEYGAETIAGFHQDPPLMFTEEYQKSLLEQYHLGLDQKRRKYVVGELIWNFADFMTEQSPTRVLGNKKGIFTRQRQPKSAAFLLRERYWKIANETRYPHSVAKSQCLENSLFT
The data set can be described thus: Plasma protocol: labeled ethanol released in headspace of plasma after adding probe. The data set is classed as biochemical. The procedure:
as §1
Blood samples were taken by the caregiver associated with the oncological service, then collected and pretreated with the CIC. This study included samples of plasma taken from 11 patients suffering from breast cancer and 11 patients suffering from lung cancer.
These patients were diagnosed, but had at the time of sampling not yet received treatment. Their response was compared to that obtained from the plasma of 4 healthy patients. The results were compared to an experimental blank wherein the probe was added, but the enzyme was not present (FIG. 3). […]
After adding the 4 probes (according to the above protocol), the quantity of the 4 isotopes of the ethanol released above the samples of the patients was measured over time. […]
(§3) According to the plasma protocol described above, the probes were used to detect the six enzymatic activities in these samples. […] The VOCs trapped on the SPME fiber are then analyzed by GC-TQMS according to the parameters defined in Tables 4 and 5. […]

For another data set, the system named is α-Glucosidase. The description is as above. The data set is classed as biochemical, human. The following applies: Ethanol-D4; Cocktail 1; 10^−3/10^−4 mol·L^−1; Splitless.
Source text: (§4) In advance, the enzymatic activities present in the blood samples of 7 healthy volunteers aged 20 to 30 years were studied by means of two cocktails of distinct probes (Table 6). This study had the objective (1) to set the final composition of the cocktails, (2) to define the concentrations of the probes to add to blood samples to obtain a significant isotope response knowing that this response would not be linked to spontaneous hydrolysis of the corresponding probes, (3) to define the optimal kinetic point, (4) to have an idea of the range of response of the isotopes of ethanol in healthy plasma samples.
(§5) Furthermore, two samples per patient were carried out in order to study the potential impact on the enzymatic activities here targeted of holding the samples at room temperature for several hours (an action which can take place in hospital conditions). Thus, the first sample was transformed into plasma and then frozen in the hour following the blood sampling. The second was reserved for 5 h at […], before treatment and then freezing. The samples were all stored at −20° C. until analysis.
as §3

The next data set relates to α-Mannosidase. The description is as above. The class given is biochemical, human. Conditions: Ethanol-D5; Cocktail 3; 10^−3/10^−4 mol·L^−1; Splitless.
Source text: as §4, §5, §3

T1 sequence (P05804 whole entry): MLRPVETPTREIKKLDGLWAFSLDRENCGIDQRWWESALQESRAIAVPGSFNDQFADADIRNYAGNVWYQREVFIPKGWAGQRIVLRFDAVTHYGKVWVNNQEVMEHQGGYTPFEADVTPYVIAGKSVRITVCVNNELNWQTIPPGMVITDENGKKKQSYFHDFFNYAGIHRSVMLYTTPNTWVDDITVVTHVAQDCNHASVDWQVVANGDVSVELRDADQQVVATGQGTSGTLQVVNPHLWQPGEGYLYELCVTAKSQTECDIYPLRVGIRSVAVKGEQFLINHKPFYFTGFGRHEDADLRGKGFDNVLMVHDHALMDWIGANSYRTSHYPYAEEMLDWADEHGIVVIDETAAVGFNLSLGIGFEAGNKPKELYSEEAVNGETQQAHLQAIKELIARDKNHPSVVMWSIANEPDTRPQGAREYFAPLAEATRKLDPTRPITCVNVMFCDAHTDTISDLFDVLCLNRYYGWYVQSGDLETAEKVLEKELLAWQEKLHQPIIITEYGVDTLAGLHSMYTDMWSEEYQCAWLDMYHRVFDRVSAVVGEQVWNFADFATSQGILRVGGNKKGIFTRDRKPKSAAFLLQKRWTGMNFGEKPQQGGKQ
Sequence of β-glucuronidase (Escherichia coli, UniProt P05804) (P05804 whole entry): as above

For `[2H]C([2H])([2H])C([2H])([2H])O[C@@H]1O[C@H](C(=O)O)[C@@H](O)[C@H](O)[C@H]1O` [D5-ethyl-β-D-glucuronide], the “LOD lower than threshold value of the reference detection method (para-nitrophenol glucuronide, UV)” value in data set [1] was determined as 100 times. The “minimum quantity of detectable enzyme” value in data set [1] (plasma matrix) is listed as 1.10^−18 mol. In addition, the “concentration at which β-glucuronidase can be detected in plasma” value in data set [1] (plasma, first results) is “less than 5.10^−13 M”. The “ethanol-D5 release for cancer tissues” value in data set [2] (MDA-MB-231 and KB tumor biopsies) was “release of this isotope was detected”. Moreover, the “ethanol-D5 response on healthy tissues” value in data set [2] (mouse liver biopsies) is listed as “no response”. For the same molecule, the “spontaneous hydrolysis when placing in buffer solution” value in data set [3] is “significant spontaneous hydrolysis”. Also, in the data set with N-acetyl glucosaminidase, the “hydrolysis of probe by N-acetyl glucosaminidase (labeled ethanol signal)” value is recorded as “does not hydrolyze”. Further, on β-glucuronidase [4], the “hydrolysis of probe by β-glucuronidase (labeled ethanol signal)” value is on record as “has hydrolyzed its own probe”. In addition, the “amount of ethanol-D5 released above plasma of patients with cancer compared to blanks and healthy patients” value on β-glucuronidase [5] (11 breast cancer, 11 lung cancer patients, 4 healthy patients) was “significantly higher”. The “discernment between healthy patients and cancer patients” value on β-glucuronidase [5] (cocktail of 4 probes, plasma of breast and lung cancer patients vs 4 healthy) was “allow clear discernment between healthy patients and cancer patients”.
Take `CCC[C@H]1C[C@H](CC)[C@@H](C)[C@H](C)[C@@H]1C` [drawing 22]: the “Plasma response range (u.a.)” value with α-Glucosidase is listed as 0-3000 u.a.
Take `CCC[C@H]1C[C@H](CC)[C@@H](C)[C@H](C)[C@@H]1C` [drawing 26]: in the data set on α-Mannosidase, the “Plasma response range (u.a.)” value is 1000-50000 u.a.
